# Measured values: paper PMC6406907, “A H2AX–CARP-1 Interaction Regulates Apoptosis Signaling Following DNA Damage” (Cancers, 2019)
# Experiments:
# [1] = tested on: CARP-1 and γH2AX; assay: WB/IF of CARP-1 and γH2AX in HCC827; assay type: cell-based, human; conditions: for CARP-1 and γH2AX increase after knock-down of CARP-1: HCC827, CARP-1 knock-down; for CARP-1 levels and γH2AX: HCC827, WB / IF
# Method: Logarithmically growing cells were either untreated or treated with different agents for various time periods. The cells were lysed to prepare protein extracts. IP was carried out by incubating approximately 1 mg of the protein lysate with appropriate antibodies. The immunoprecipitates were then analyzed by SDS-PAGE, followed by WB with respective, interacting protein. For Gst-pulldown, Gst-H2AX or various His-TAT-HA-tagged CARP-1 peptides were generated in Escherichia coli (E. coli) BL21 cells essentially as described by us previously. Briefly, the competent E. coli BL-21 (DE3) pLysS cells were transformed separately with various recombinant pGEX-4T-1 or pTAT-HA constructs. The transformed cells were then subjected to selection by combined presence of ampicillin and chloramphenicol; various isolates for each transformation were obtained and bacterial lysates were characterized for expression of fusion peptides. Cells from each isolate were grown in 4 mL of LB medium containing ampicillin only until the optical density (OD)600 reached 0.4–0.8. Expression of fusion peptides was induced over 2–4 h incubation periods after Isopropyl β-D-1-thiogalactopyranoside (IPTG) addition. The cells were harvested, and pellets were stored at −80 °C overnight. The cell pellets were then lysed in 100–400 μL of bacterial protein extraction reagent (BPER) buffer (Thermo Scientific, Waltham, MA, USA, Cat# 78243) containing 2 μL/mL of 10 units/μL DNAse I (Boehringer Mannheim, Fremont, CA, USA, Cat # 776–785), and supernatant checked for expression of respective fusion peptides by WB. Following confirmation of expression, 5–20 μL of lysate expressing Gst fusion protein was first incubated with 20 μL of precleared glutathione sepharose in a final volume of 100 μL at 4 °C for 2 h with constant rotation. The sepharose beads were spun at 800× g for 2 min, and the pellet was washed 2–4 times with 100–200 μL of RIPA buffer (20 mM Tris-HCl (pH 7.5), 150 mM NaCl, 1 mM Na2EDTA, 1 mM EGTA, 1% NP-40, 1% sodium deoxycholate, 2.5 mM sodium pyrophosphate, 1 mM β-glycerophosphate, 1 mM Na3VO4, 1 µg/mL leupeptin) with 0.5 M NaCl. The beads were spun again as above, and mixed with 5–20 μL of E. coli lysate expressing His-TAT-HA CARP-1 peptides. The reactions were incubated further at 4 °C for 2 h with constant rotation. The peptide-bound sepharose beads were pelleted and washed with 100–200 μL of RIPA buffer with 0.1 M NaCl for 2–4 washes. In some cases, additional washes with 0.05 M NaCl buffer were carried out. After the final wash, the sepharose–protein complexes were spun, and then re-suspended in SDS loading buffer for electrophoresis on 12–15% SDS PAGE, followed by WB with appropriate antibodies.
# Cells were plated onto chamber slides one day before treatment. […]
# [2] = tested on: CARP-1, phospho-JNK1/2, phospho-H2AX; assay: Western blot of CARP-1, phospho-JNK1/2, γH2AX in UOK 262; assay type: cell-based, human; conditions: 10 μM, UOK 262, WB
# Method: Logarithmically growing cells were either untreated or treated with different agents for various time periods. The cells were lysed to prepare protein extracts. IP was carried out by incubating approximately 1 mg of the protein lysate with appropriate antibodies. The immunoprecipitates were then analyzed by SDS-PAGE, followed by WB with respective, interacting protein. For Gst-pulldown, Gst-H2AX or various His-TAT-HA-tagged CARP-1 peptides were generated in Escherichia coli (E. coli) BL21 cells essentially as described by us previously. Briefly, the competent E. coli BL-21 (DE3) pLysS cells were transformed separately with various recombinant pGEX-4T-1 or pTAT-HA constructs. The transformed cells were then subjected to selection by combined presence of ampicillin and chloramphenicol; various isolates for each transformation were obtained and bacterial lysates were characterized for expression of fusion peptides. Cells from each isolate were grown in 4 mL of LB medium containing ampicillin only until the optical density (OD)600 reached 0.4–0.8. […]
# Here, we utilized human TNBC MDA-MB-468 and human cervical cancer HeLa cells to conduct an MTT-based dose-response analysis using Adriamycin and CFM compounds. […] The cell lysates from the control, untreated, and treated cells were analyzed by WB for expression of CARP-1, phospho-JNK1/2, phospho-H2AX, and poly ADP ribose polymerase (PARP) proteins. […]
structure (smiles),measurement,setting,value
"COc1cccc2c1C(=O)c1c(O)c3c(c(O)c1C2=O)C[C@@](O)(C(=O)CO)C[C@@H]3O[C@H]1C[C@H](N)[C@H](O)[C@H](C)O1 [Adriamycin, doxorubicin, reference compound]",CARP-1 and γH2AX increase after knock-down of CARP-1,[1],abrogated CARP-1 and γH2AX increase
same,CARP-1 levels and γH2AX,[1],robust increase in CARP-1 levels and γH2AX
same,"expression of CARP-1, phospho-JNK1/2, phospho-H2AX",[2],"stimulated expression of CARP-1, phospho-JNK1/2, and phospho-H2AX in a time-dependent manner"
O=C1N(Cc2ccccc2Cl)c2ccccc2C12NN=C(c1cccc(Cl)c1)S2 (stereo not drawn) [CFM-4.16],CARP-1 and γH2AX increase after knock-down of CARP-1,[1],abrogated CARP-1 and γH2AX increase
same,CARP-1 levels and γH2AX,[1],robust increase in CARP-1 levels and γH2AX
same,"expression of CARP-1, phospho-JNK1/2, phospho-H2AX",[2],"stimulated expression of CARP-1, phospho-JNK1/2, and phospho-H2AX in a time-dependent manner"
